Experiment: Agonist activity at VDR in human HL60 cells assessed as induction of cell differentiation after 96 hrs by NBT assay
Molecule `CCC(C)C(NC(=O)c1ccc(C(CC)(CC)c2ccc(OCCC(O)(CC)CC)c(C)c2)n1CC)C(=O)O` (stereo unspecified) has an EC50 of 860 nM.
For `CCn1c(C(=O)NCC#N)ccc1C(CC)(CC)c1ccc(OCCC(O)(CC)CC)c(C)c1`, the EC50 was 1080 nM.
`CCn1c(C(=O)NCCCN2CCOCC2)ccc1C(CC)(CC)c1ccc(OCCC(O)(CC)CC)c(C)c1` gave an EC50 of 238 nM.
`CCN(CC)CCCNC(=O)c1ccc(C(CC)(CC)c2ccc(OCCC(O)(CC)CC)c(C)c2)n1CC` showed an EC50 of 11 nM.
With `CCn1c(C(=O)N(C)CCO)ccc1C(CC)(CC)c1ccc(OCCC(O)(CC)CC)c(C)c1` the EC50 was 53 nM.
In the case of `CCn1c(C(=O)N(CCC#N)CCC#N)ccc1C(CC)(CC)c1ccc(OCCC(O)(CC)CC)c(C)c1`, the EC50 is reported as over 10000 nM.
In the case of `CCn1c(C(=O)NC(C)CO)ccc1C(CC)(CC)c1ccc(OCC(O)C(C)(C)C)c(C)c1` (stereo unspecified), the EC50 is reported as 8.5 nM.
With `CCn1c(C(=O)N(C)CC(=O)O)ccc1C(CC)(CC)c1ccc(OCCC(O)(CC)CC)c(C)c1` the EC50 was 89 nM.
Molecule `C=CCN(C)C(=O)c1ccc(C(CC)(CC)c2ccc(OCCC(O)(CC)CC)c(C)c2)n1CC` has an EC50 of over 10000 nM.
Molecule `CCn1c(C(=O)Nc2cccc(C(F)(F)F)c2)ccc1C(CC)(CC)c1ccc(OCCC(O)(CC)CC)c(C)c1` has an EC50 of 5900 nM.
For `CCn1c(C(=O)NCCCN(C)C)ccc1C(CC)(CC)c1ccc(OCCC(O)(CC)CC)c(C)c1`, the EC50 was 5 nM.
In the case of `CCOC(=O)CN(C)C(=O)c1ccc(C(CC)(CC)c2ccc(OCCC(O)(CC)CC)c(C)c2)n1CC`, the EC50 is reported as 520 nM.
With `C#CCCOC(=O)c1ccc(C(CC)(CC)c2ccc(OCCC(O)(CC)CC)c(C)c2)n1CC` the EC50 was 6030 nM.
`CCn1c(C(=O)NCCN(C)C)ccc1C(CC)(CC)c1ccc(OCCC(O)(CC)CC)c(C)c1` showed an EC50 of 82 nM.
In the case of `CCn1c(C(=O)Oc2ccc(CC(=O)OC)cc2)ccc1C(CC)(CC)c1ccc(OCCC(O)(CC)CC)c(C)c1`, the EC50 is reported as over 10000 nM.
`CCN(CC)CCNC(=O)c1ccc(C(CC)(CC)c2ccc(OCCC(O)(CC)CC)c(C)c2)n1CC` gave an EC50 of 2.3 nM.
With `CCn1c(C(=O)NC(C)CO)ccc1C(CC)(CC)c1ccc(OCCC(O)(CC)CC)c(C)c1` (stereo unspecified) the EC50 was 96 nM.
For `CCC(C)C(CO)NC(=O)c1ccc(C(CC)(CC)c2ccc(OCCC(O)(CC)CC)c(C)c2)n1CC` (stereo unspecified), the EC50 was 450 nM.
`CCOc1ccc(NC(=O)c2ccc(C(CC)(CC)c3ccc(OCCC(O)(CC)CC)c(C)c3)n2CC)cc1` gave an EC50 of 1630 nM.
Work on `CCn1c(C(=O)NC(C)C(=O)O)ccc1C(CC)(CC)c1ccc(OCCC(O)(CC)CC)c(C)c1` (stereo unspecified) yielded an EC50 of 66 nM.
`CCn1c(C(=O)NC(CO)CCO)ccc1C(CC)(CC)c1ccc(OCCC(O)(CC)CC)c(C)c1` (stereo unspecified) showed an EC50 of 2490 nM.
Molecule `CCn1c(C(=O)NC(CC(=O)O)C(=O)OC)ccc1C(CC)(CC)c1ccc(OCCC(O)(CC)CC)c(C)c1` (stereo unspecified) has an EC50 of 26 nM.
Molecule `CCC(C)C(NC(=O)c1ccc(C(CC)(CC)c2ccc(OCCC(O)(CC)CC)c(C)c2)n1CC)C(=O)OC` (stereo unspecified) has an EC50 of over 10000 nM.
In the case of `C#CC(C)OC(=O)c1ccc(C(CC)(CC)c2ccc(OCCC(O)(CC)CC)c(C)c2)n1CC` (stereo unspecified), the EC50 is reported as 2650 nM.
`CCn1c(C(=O)Nc2ccc(OC(F)(F)F)cc2)ccc1C(CC)(CC)c1ccc(OCCC(O)(CC)CC)c(C)c1` showed an EC50 of over 10000 nM.
`CCn1c(C(=O)NCCN)ccc1C(CC)(CC)c1ccc(OCCC(O)(CC)CC)c(C)c1` gave an EC50 of 156 nM.
